Article PMC8694169 (Microbiology Spectrum, 2021)
Like-named read-outs stand apart in the source and are kept apart here. Where a SMILES comes first, the peptide text is derived from it. Where no end group is shown, it is not given here.

Experiments:
HLA-A*24:02 [1] = biological target: T1, HLA-A*24:02 (Homo sapiens, UniProt P04439, D101N/D140Y/D185E/E176V/E190D/F33S/G103R/G107R/I119L/I121M/I306V/K335N/L105A/L180Q/L300P/N151K/N90K/Q86E/Q94H/R106L/R138H/R89G/T104I/T345S/V100E/W191G/Y123F); test: cell-based; type: binding
[2] = system: IFN-γ-producing CD8+ T cells; test: Intracellular IFN-γ staining (ICS) of spleen CD8+ T cells after immunization with liposomal peptides; type: in vivo, HLA-A*24:02 transgenic mice; conditions: mice immunized with liposomal peptides + CpG; result in words
human lymphocytes = conditions: epitopes of same sequence submitted as HLA-A*24:02-restricted pp1a-specific CTL epitopes; ref Virus Pathogen Database and Analysis Resource; cited from earlier work
HLA-A*24:02 [3] = biological target: T1, HLA-A*24:02; conditions: ref Virus Pathogen Database and Analysis Resource; cited from earlier work
IFN-γ+ CD8+ T cells = test: Comparison of conserved top 4 peptides, ICS after immunization with 4-peptide mixture in liposomes; type: in vivo, HLA-A*24:02 transgenic mice; conditions: eight mice immunized with mixture of pp1a-1417, -3104, -3792, -4229 in liposomes with CpG; spleen cells + peptide 5 h; one-way ANOVA; Fig. 5A
CD107a+ CD8+ T cells = test: Comparison of conserved top 4 peptides, CD107a on CD8+ T cells; type: in vivo, HLA-A*24:02 transgenic mice; conditions: eight mice immunized with 4-peptide mixture in liposomes with CpG; spleen cells + 50 μM peptide 6 h; one-way ANOVA; Fig. 5B
[4] = […], mean ± SD, triplicate, repeated twice, ND = not detected, read-out: BL50 (half-maximal binding level, peptide concentration that yields 50% relative binding)

Molecule | EC50 (HLA-A*24:02 [1]; [4]) [µM] | detection of IFN-γ-producing CD8+ T cells in immunized mice [2] | also measured
VYEKLKPVL [pp1a-620] | 264 ± 21.4 |  | 
NFSKLINII [pp1a-2222] | 181 ± 32.5 |  | 
WFLLLSVCL [pp1a-2232] | 279 ± 12.6 |  | 
FYLTNDVSF [pp1a-3114] | 0.01 | significant numbers | result in T cell assays using human lymphocytes (human lymphocytes): negative; result in the binding assay (HLA-A*24:02 [3]): positive
KFLTENLLL [pp1a-1247] | 33.4 ± 1.9 |  | 
QYELKHGTF [pp1a-1813] | 141 ± 8 |  | 
AFGLVAEWF [pp1a-2320] | 135 ± 39.1 |  | 
YYRSLPGVF [pp1a-3010] | 122 ± 18.8 |  | 
MFTPLIQPI [pp1a-3030] | 251 ± 88.7 |  | 
AFVETVKGL [pp1a-486] | 278 ± 49.8 |  | 
PYCYDTNVL [pp1a-2931] | 6.8 ± 1 |  | 
PFWITIAYI [pp1a-3137] | 103 ± 8.4 |  | 
KFKEGVEFL [pp1a-634] | 79.6 ± 6.6 | significant numbers | 
AFLPFAMGI [pp1a-3610] | 183 ± 8.2 |  | 
YYHTTDPSF [pp1a-1634] | 0.04 |  | 
DYKHYTPSF [pp1a-1971] | 58.4 ± 11.7 |  | 
QYGRSGETL [pp1a-96] | 124 ± 10.9 |  | 
FYENAFLPF [pp1a-3606] | 0.02 ± 0.01 | significant numbers | 
DYQGKPLEF [pp1a-954] | 126 ± 23.9 |  | 
MFLARGIVF [pp1a-3752] | 24.2 ± 1.5 | significant numbers | 
YYTSNPTTF [pp1a-1536] | 0.05 |  | 

Molecule | EC50 (HLA-A*24:02 [1]; [4]) [µM] | detection of IFN-γ-producing CD8+ T cells in immunized mice [2] | also measured
YYKKDNSYF [pp1a-1899] | 0.3 | significant numbers | result in T cell assays using human lymphocytes (human lymphocytes): positive
CC(C)C[C@H](NC(=O)[C@H](CC(C)C)NC(=O)[C@H](CS)NC(=O)[C@H](Cc1ccccc1)NC(=O)[C@H](CC(C)C)NC(=O)CNC(=O)[C@H](Cc1ccccc1)NC(=O)[C@H](Cc1ccc(O)cc1)NC(=O)[C@@H](N)CS)C(=O)O [pp1a-3792] (H-CYFGLFCLL-OH; N-terminus and C-terminus assumed) |  | significant numbers | 
IYLYLTFYL [pp1a-3108] | 100 ± 13.8 |  | 
DFVKATCEF [pp1a-335] | 127 ± 3.8 |  | 
VYSVIYLYL [pp1a-3104] | 0.5 | significant numbers | dominance in induction of peptide-specific IFN-γ+ CD8+ T cells among conserved top 4 peptides (IFN-γ+ CD8+ T cells): far superior to all other peptides; dominance in CD107a induction of CD8+ T cells among conserved top 4 peptides (CD107a+ CD8+ T cells): statistically predominant over pp1a-1417 and -4229; result in T cell assays using human lymphocytes (human lymphocytes): negative; result in the binding assay (HLA-A*24:02 [3]): positive
NFNQHEVLL [pp1a-1137] | 55.3 ± 2 |  | 
YFTEQPIDL [pp1a-1906] | 113 ± 9.4 |  | 
TFDNLKTLL [pp1a-1552] | 96.1 ± 1.6 |  | 
AFEKMVSLL [pp1a-3907] | 114 ± 3.1 |  | 
SYSGQSTQL [pp1a-1515] | 45.8 ± 10.5 |  | 
KYLYFIKGL [pp1a-4226] |  |  | EC50 (HLA-A*24:02 [1]; SD): 109 ± 1.3 µM
SYGADLKSF [pp1a-135] | 104 ± 17.7 |  | 
IFGTVYEKL [pp1a-616] | 122 ± 18 |  | 
SYLFQHANL [pp1a-1733] | 3 ± 0.4 |  | 
KFVCDNIKF [pp1a-1929] | 61.7 ± 1.6 |  | 
YFIKGLNNL [pp1a-4229] | 32.1 ± 1.9 | significant numbers | 
MFDAYVNTF [pp1a-2590] | 7.7 ± 0.6 | significant numbers | 
FYVLGLAAI [pp1a-2338] | 0.7 ± 0.1 | significant numbers | 
TFHLDGEVI [pp1a-1543] | 100 ± 6.8 |  | 
FYWFFSNYL [pp1a-3153] | 3.9 ± 1.3 | significant numbers | 
LYIDINGNL [pp1a-1255] | 40.4 ± 8.6 | significant numbers | 

Molecule | EC50 (HLA-A*24:02 [1]; [4]) [µM] | detection of IFN-γ-producing CD8+ T cells in immunized mice [2] | also measured
TFCAGSTFI [pp1a-2457] | 127 ± 20.2 |  | 
GYKSVNITF [pp1a-835] | 0.1 | significant numbers | 
AFYILPSII [pp1a-1352] | 64.4 ± 9.2 |  | 
DYGARFYFY [pp1a-1417] | 16.1 ± 0.8 | significant numbers | 
LYDKLVSSF [pp1a-1182] | 1 ± 0.3 | significant numbers | result in T cell assays using human lymphocytes (human lymphocytes): positive
TFNGECPNF [pp1a-265] | 1.7 ± 0.4 | significant numbers | result in T cell assays using human lymphocytes (human lymphocytes): positive
LYCIDGALL [pp1a-1845] | 38.5 ± 8.2 | significant numbers | 
MYASAVVLL [pp1a-3684] | 0.4 ± 0.1 | significant numbers | result in T cell assays using human lymphocytes (human lymphocytes): negative; result in the binding assay (HLA-A*24:02 [3]): positive
NYLKRRVVF [pp1a-3159] | 114 ± 5.3 |  | 
LFLMSFTVL [pp1a-3084] | 100 ± 7.6 |  | 
VFLFVAAIF [pp1a-2779] | 8.6 ± 0.4 | significant numbers | 
TFFKLVNKF [pp1a-677] | 55.9 ± 3.3 |  | 
LFVAAIFYL [pp1a-2781] | 183 ± 8.2 |  | 
FFSYFAVHF [pp1a-2350] | 1.4 ± 0.1 | significant numbers | 
MFVKHKHAF [pp1a-3627] | 241 ± 33.6 |  | 
AYILFTRFF [pp1a-2330] | 0.8 ± 0.1 | significant numbers | result in T cell assays using human lymphocytes (human lymphocytes): positive
DYLVSTQEF [pp1a-3812] |  |  | EC50 (HLA-A*24:02 [1]; SD): 0.9 ± 0.1 µM
GYVTHGLNL [pp1a-1451] | 109 ± 8.9 |  | 
NFTIKGSFL [pp1a-3396] | 134 ± 7.6 |  | 
